According to patent publication US10011585B2, “Factor XIa inhibitors” (Merck Sharp & Dohme Corp., priority 2014, dated 2018):
Where two headings read alike, the source gives them in different places.

Tests used:
[1] = molecular target: T1, human Factor XIa (Homo sapiens, UniProt P03951); experiment: Factor XIa Assay; assay type: biochemical; conditions: read-out: F11a IC50
T1 construct: purified human Factor XIa; purchased Sekisui Diagnostics
Description: The effectiveness of a compound of the present invention as an inhibitor of Coagulation Factor XIa can be determined using a relevant purified serine protease, and an appropriate synthetic substrate. The rate of hydrolysis of the chromogenic or fluorogenic substrate by the relevant serine protease was measured both in the absence and presence of compounds of the present invention. Assays were conducted at room temperature or at 37° C. […] A decrease in the rate of fluorescence change in the presence of inhibitor is indicative of enzyme inhibition. Such methods are known to one skilled in the art. […]
Factor XIa determinations were made in 50 mM HEPES buffer at pH 7.4 containing 150 mM NaCl, 5 mM CaCl2, and 0.1% PEG 8000 (polyethylene glycol; JT Baker or Fisher Scientific). Determinations were made using purified human Factor XIa at a final concentration of 40 pM (Sekisui Diagnostics) and the synthetic substrate, Z-Gly-Pro-Arg-AFC, TFA salt (Sigma #C0980) at a concentration of 100 μM.
Times required to achieve equilibration between enzyme and inhibitor were determined in control experiments. Initial velocities of product formation in the absence (Vo) or presence of inhibitor (Vi) were measured. Assuming competitive inhibition, and that unity is negligible compared Km/[S], [I]/e, and [I]/e (where [S], [I], and e respectively represent the total concentrations, of substrate, inhibitor and enzyme), the equilibrium constant (Ki) for dissociation of the inhibitor from the enzyme can be obtained from the dependence of Vo/Vi on [I] shown in the following equation.

[2] = molecular target: T2, Human plasma kallikrein (Homo sapiens, UniProt P03952); experiment: Kallikrein Assay; assay type: biochemical; conditions: Plasma Kallekrein IC50, read-out: PK IC50
T2 construct: yields a heavy chain (371 amino acids) and a light chain (248 amino acids); purchased Enzyme Research Laboratories
Description: The effectiveness of a compound of the present invention as an inhibitor of Kallikrein can be determined using a relevant purified serine protease, and an appropriate synthetic substrate. The rate of hydrolysis of the chromogenic or fluorogenic substrate by the relevant serine protease was measured both in the absence and presence of compounds of the present invention. Assays were conducted at room temperature or at 37° C. […] A decrease in the rate of fluorescence change in the presence of inhibitor is indicative of enzyme inhibition. Such methods are known to one skilled in the art. The results of this assay are expressed as the inhibitory constant, Ki.
Kallikrein determinations were made in 50 mM HEPES buffer at pH 7.4 containing 150 mM NaCl, 5 mM CaCl2, and 0.1% PEG 8000 (polyethylene glycol; Fisher Scientific). Determinations were made using purified Human plasma kallikrein at a final concentration of 0.5 nM (Enzyme Research Laboratories) and the synthetic substrate, Acetyl-K—P—R-AFC (Sigma # C6608) at a concentration of […].
Times required to achieve equilibration between enzyme and inhibitor were determined in control experiments. The reactions were performed under linear progress curve conditions and fluorescence increase measured at 405 Ex/510 Em nm. […] IC50 was determined by inflection point from a four parameter logistic curve fit. Ki was calculated using the Cheng Prusoff equation, Ki=IC50/(1+([S]/Km)).

T2 sequence (P03952 391-638 limits assumed): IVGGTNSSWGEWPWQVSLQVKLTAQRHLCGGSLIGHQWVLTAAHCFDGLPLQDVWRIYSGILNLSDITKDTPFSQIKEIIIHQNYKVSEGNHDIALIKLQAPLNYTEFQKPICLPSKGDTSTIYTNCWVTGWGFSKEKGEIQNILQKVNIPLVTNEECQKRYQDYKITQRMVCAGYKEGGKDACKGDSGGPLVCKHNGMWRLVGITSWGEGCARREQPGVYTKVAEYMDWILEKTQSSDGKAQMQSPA
T2 sequence (P03952 20-390 partner limits assumed): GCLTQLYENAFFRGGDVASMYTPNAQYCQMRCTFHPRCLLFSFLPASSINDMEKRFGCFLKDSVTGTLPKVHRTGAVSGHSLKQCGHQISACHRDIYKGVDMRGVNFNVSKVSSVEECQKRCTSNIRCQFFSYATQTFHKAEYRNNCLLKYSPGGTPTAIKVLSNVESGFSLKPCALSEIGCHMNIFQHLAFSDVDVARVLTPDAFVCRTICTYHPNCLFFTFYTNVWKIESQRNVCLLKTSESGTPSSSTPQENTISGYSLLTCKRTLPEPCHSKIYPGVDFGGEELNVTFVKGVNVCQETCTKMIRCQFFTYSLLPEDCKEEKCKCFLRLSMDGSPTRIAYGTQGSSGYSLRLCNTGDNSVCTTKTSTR
T1 sequence (P03951 388-625 limits assumed): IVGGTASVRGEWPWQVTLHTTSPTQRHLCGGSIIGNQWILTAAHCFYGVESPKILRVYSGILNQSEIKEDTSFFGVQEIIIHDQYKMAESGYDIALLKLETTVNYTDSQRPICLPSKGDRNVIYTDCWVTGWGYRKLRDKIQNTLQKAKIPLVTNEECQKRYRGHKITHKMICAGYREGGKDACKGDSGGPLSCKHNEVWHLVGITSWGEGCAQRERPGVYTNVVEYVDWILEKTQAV
T1 sequence (P03951 19-387 partner limits assumed): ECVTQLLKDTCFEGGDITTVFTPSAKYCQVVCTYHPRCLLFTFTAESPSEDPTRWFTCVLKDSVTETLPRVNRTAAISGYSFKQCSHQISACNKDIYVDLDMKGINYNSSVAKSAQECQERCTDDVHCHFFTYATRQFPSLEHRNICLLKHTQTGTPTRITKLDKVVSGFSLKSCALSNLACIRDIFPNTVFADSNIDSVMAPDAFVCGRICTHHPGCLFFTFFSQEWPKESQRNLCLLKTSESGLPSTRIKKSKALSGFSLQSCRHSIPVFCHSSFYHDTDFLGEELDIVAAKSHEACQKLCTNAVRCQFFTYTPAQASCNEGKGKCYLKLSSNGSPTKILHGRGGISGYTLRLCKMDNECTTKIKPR

SMILES | IC50 ([1]; Examples 1-19 table) [nM] | IC50 ([2]; Examples 1-19 table) [nM] | IC50 ([1]; Examples 20-28 table) [nM] | IC50 ([2]; Examples 20-28 table) [nM]
[O-][n+]1cc(-c2cc(Cl)ccc2-n2cnnn2)ccc1C(Cc1ccccc1)c1nc2cc(F)ccc2[nH]1 (racemic) [Example 7, 5-(5-chloro-2-(1H-tetrazol-1-yl)phenyl)-2-(1-(5-fluoro-1H-benzo[d]imidazol-2-yl)-2-phenylethyl)pyridine 1-oxide] | 1.15 | 186 | – | –
O=C(O)c1ccc2[nH]c(C(Cc3ccccc3)c3ccc(-c4c(F)ccc(Cl)c4F)c[n+]3[O-])nc2c1 (stereo in doubt) [Example 2, (S)-2-(1-(5-Carboxy-1H-benzo[d]imidazol-2-yl)-2-phenylethyl)-5-(3-chloro-2,6-difluorophenyl)pyridine 1-oxide] | 46.2 | 182 | – | –
[O-][n+]1cc(-c2cc(Cl)ccc2-n2cnnn2)ccc1C(Cc1ccccc1)c1nc2cc(F)ccc2[nH]1 (stereo in doubt) [Example 9, (R)-5-(5-chloro-2-(1H-tetrazol-1-yl)phenyl)-2-(1-(5-fluoro-1H-benzo[d]imidazol-2-yl)-2-phenylethyl)pyridine 1-oxide] | 3.28 | 295 | – | –
O=C(O)c1ccc2[nH]c([C@@H](Cc3ccccc3)c3ccc(-c4cc(Cl)ccc4-n4cnnn4)c[n+]3[O-])nc2c1 [Example 5, (S)-2-(1-(5-Carboxy-1H-benzo[d]imidazol-2-yl)-2-phenylethyl)-5-(5-chloro-2-(1H-tetrazol-1-yl)phenyl)pyridine 1-oxide] | 3.41 | 216 | – | –
O=C(O)c1ccc2[nH]c(C(Cc3ccccc3)c3ccc(-c4c(F)ccc(Cl)c4F)c[n+]3[O-])nc2c1 (racemic) [Example 1, 2-(1-(5-Carboxy-1H-benzo[d]imidazol-2-yl)-2-phenylethyl)-5-(3-chloro-2,6-difluorophenyl)pyridine 1-oxide] | 89.2 | 293 | – | –
O=C(O)c1ccc2[nH]c(C(Cc3ccccc3)c3ccc(-c4cc(Cl)ccc4-n4cnnn4)c[n+]3[O-])nc2c1 (racemic) [Example 4, 2-(1-(5-Carboxy-1H-benzo[d]imidazol-2-yl)-2-phenylethyl)-5-(5-chloro-2-(1H-tetrazol-1-yl)phenyl)pyridine 1-oxide] | 0.45 | 52.7 | – | –
[O-][n+]1cc(-c2cc(Cl)ccc2-n2cnnn2)ccc1[C@@H](Cc1ccc(F)cc1)c1nc2cc(F)ccc2[nH]1 [Example 15] | 4.7 | 245 | – | –
O=C(O)c1ccc2[nH]c([C@H](Cc3ccccc3)c3ccc(-c4cc(Cl)ccc4-n4cnnn4)c[n+]3[O-])nc2c1 [Example 6, (R)-2-(1-(5-Carboxy-1H-benzo[d]imidazol-2-yl)-2-phenylethyl)-5-(5-chloro-2-(1H-tetrazol-1-yl)phenyl)pyridine 1-oxide] | 0.51 | 28.4 | – | –
[O-][n+]1cc(-c2cc(Cl)ccc2-n2cnnn2)ccc1[C@H](Cc1ccc(F)cc1)c1nc2cc(F)ccc2[nH]1 [Example 14] | 89.7 | 809 | – | –
N#Cc1ccc2[nH]c(C(Cc3ccccc3)c3ccc(-c4cc(Cl)ccc4-n4cnnn4)c[n+]3[O-])nc2c1 (racemic) [Example 16] | 1.33 | 151 | – | –
N#Cc1ccc2[nH]c(C(Cc3ccccc3)c3ccc(-c4c(F)ccc(Cl)c4F)c[n+]3[O-])nc2c1 (racemic) [Example 13] | 1880 | – | – | –
O=C(O)c1ccc2[nH]c([C@H](Cc3ccc(F)cc3)c3ccc(-c4c(F)ccc(Cl)c4F)c[n+]3[O-])nc2c1 [Example 12] | 160 | – | – | –
N#Cc1ccc(Cl)cc1-c1ccc(C(Cc2ccccc2)c2nc3cc(C(=O)O)ccc3[nH]2)[n+]([O-])c1 (racemic) [Example 17] | 38.2 | 335 | – | –
[O-][n+]1cc(-c2cc(Cl)ccc2-n2cnnn2)ccc1C(Cc1ccccc1)c1nc2cc(F)ccc2[nH]1 (stereo in doubt) [Example 8, (S)-5-(5-chloro-2-(1H-tetrazol-1-yl)phenyl)-2-(1-(5-fluoro-1H-benzo[d]imidazol-2-yl)-2-phenylethyl)pyridine 1-oxide] | 1.33 | 124 | – | –
O=C(O)c1ccc2[nH]c(C(Cc3ccccc3)c3ccc(-c4c(F)ccc(Cl)c4F)c[n+]3[O-])nc2c1 (stereo in doubt) [Example 3, (R)-2-(1-(5-Carboxy-1H-benzo[d]imidazol-2-yl)-2-phenylethyl)-5-(3-chloro-2,6-difluorophenyl)pyridine 1-oxide] | 138 | 182 | – | –
[O-][n+]1cc(-c2c(F)ccc(Cl)c2F)ccc1C(Cc1ccccc1)c1nc2cc(F)ccc2[nH]1 (racemic) [Example 10] | 1250 | – | – | –
O=C(O)c1ccc2[nH]c([C@@H](Cc3ccc(F)cc3)c3ccc(-c4c(F)ccc(Cl)c4F)c[n+]3[O-])nc2c1 [Example 11] | 146 | – | – | –

The remaining lines, values ahead:

IC50 ([1]; Examples 1-19 table) [nM] | IC50 ([2]; Examples 1-19 table) [nM] | IC50 ([1]; Examples 20-28 table) [nM] | IC50 ([2]; Examples 20-28 table) [nM] | SMILES
– | – | 11.8 | 169 | [O-][n+]1cc(-c2c(-n3cnnn3)ccc(Cl)c2F)ccc1[C@H](Cc1ccccc1)c1nc2cc(F)ccc2[nH]1 [Example 21, 2-[(1S)-1-{5-[3-chloro-2-fluoro-6-(1H-tetrazol-1-yl)phenyl]-1-oxidopyridin-2-yl}-2-phenylethyl]-5-fluoro-1H-benzimidazole]
– | – | 7930 | – | O=C(O)c1ccc2nc(C(CC(=O)N3CCC3)c3ccc(-c4c(F)ccc(Cl)c4F)c[n+]3[O-])[nH]c2c1 (racemic) [Example 26]
– | – | 1000 | – | NC(=O)c1ccc(Cl)cc1-c1ccc([C@H](Cc2ccccc2)c2nc3cc(F)ccc3[nH]2)[n+]([O-])c1 [Example 23, (S)-5-(2-carbamoyl-5-chlorophenyl)-2-(1-(5-fluoro-1H-benzo[d]imidazol-2-yl)-2-phenylethyl)pyridine 1-oxide]
– | – | 154 | – | NC(=O)c1ccc(Cl)cc1-c1ccc([C@@H](Cc2ccccc2)c2nc3cc(F)ccc3[nH]2)[n+]([O-])c1 [Example 22, (R)-5-(2-carbamoyl-5-chlorophenyl)-2-(1-(5-fluoro-1H-benzo[d]imidazol-2-yl)-2-phenylethyl)pyridine 1-oxide]
– | – | 14.2 | – | O=C(O)c1ccc2nc(C(CC3CC3)c3ccc(-c4cc(Cl)ccc4-n4cnnn4)c[n+]3[O-])[nH]c2c1 (racemic) [Example 24, 2-(1-(5-carboxy-1H-benzo[d]imidazol-2-yl)-2-cyclopropylethyl)-5-(5-chloro-2-(1H-tetrazol-1-yl)phenyl)pyridine 1-oxide]
– | – | 93.7 | 1810 | O=C(CC(c1nc2ccc(F)cc2[nH]1)c1ccc(-c2cc(Cl)ccc2-n2cnnn2)c[n+]1[O-])N1CCC1 (single isomer, unassigned) [Example 28]
– | – | 1.82 | 64.8 | [O-][n+]1cc(-c2c(-n3cnnn3)ccc(Cl)c2F)ccc1[C@@H](Cc1ccccc1)c1nc2cc(F)ccc2[nH]1 [Example 20, 2-[(1R)-1-{5-[3-chloro-2-fluoro-6-(1H-tetrazol-1-yl)phenyl]-1-oxidopyridin-2-yl}-2-phenylethyl]-5-fluoro-1H-benzimidazole]
– | – | 54 | 2740 | O=C(O)c1ccc2[nH]c(C(Cc3ccccc3)c3ccc(-c4cc(Cl)ccc4C(=O)O)c[n+]3[O-])nc2c1 (racemic) [Example 25]
– | – | 79.1 | – | O=C(CC(c1nc2ccc(F)cc2[nH]1)c1ccc(-c2cc(Cl)ccc2-n2cnnn2)c[n+]1[O-])N1CCC1 (single isomer, unassigned) [Example 27]
